Usually IC50 stands for the midpoint of a concentration-inhibition curve. Low readings indicate inhibition by little substance, high ones a need for much substance.

Assay [1] concerns the target human A2a adenosine receptor (Homo sapiens (Human), UniProt P29274). Put plainly: A2a receptor affinity radioligand binding assay ([3H] SCH58261, membranes from HEK293 or CHO cells). To be noted: unstarred values: radioligand binding. In outline:
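Displacement of tritiated SCH58261 (working dilution 4 nM) from recombinant human A2a receptor membranes (HEK293 or CHO), 60 min at room temperature in Tris pH 7.4/MgCl2 buffer after 15–30 min compound preincubation. Scintillation counting after filtration; normalized percent effect fitted 4-parameter logistic for IC50.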

Assay [2] addresses human A2b adenosine receptor (Homo sapiens (Human), UniProt P29275). Put plainly: A2B antagonism in cAMP cell-based assay (LANCE cAMP, HEK293 cells, 600 nM adenosine). To be noted: for IC50: values marked *: cAMP cell-based assay. The procedure:
Measurement of A2A and A2B Antagonism in cAMP Cell-Based Assay
All subsequent liquid additions were performed using a multichannel pipettor. […] After this time 5 μL of either 300 nM or 600 nM adenosine (Sigma Cat. No. A9251) for A2A and A2B respectively was added and incubated for 30 minutes at 37° C. and 5% CO2 in a humidified environment. At this time detection mix was prepared by combining the LANCE Eu-W8044 labeled streptavidin and. Biotin-cAMP in detection buffer according to the manufacturers protocol. […] Curve fitting of the percent effect data versus the log of compound concentration used a 4-parameter concentration response curve fitting algorithm to calculate IC50 values.

Chain of human A2a adenosine receptor (P29274 whole entry): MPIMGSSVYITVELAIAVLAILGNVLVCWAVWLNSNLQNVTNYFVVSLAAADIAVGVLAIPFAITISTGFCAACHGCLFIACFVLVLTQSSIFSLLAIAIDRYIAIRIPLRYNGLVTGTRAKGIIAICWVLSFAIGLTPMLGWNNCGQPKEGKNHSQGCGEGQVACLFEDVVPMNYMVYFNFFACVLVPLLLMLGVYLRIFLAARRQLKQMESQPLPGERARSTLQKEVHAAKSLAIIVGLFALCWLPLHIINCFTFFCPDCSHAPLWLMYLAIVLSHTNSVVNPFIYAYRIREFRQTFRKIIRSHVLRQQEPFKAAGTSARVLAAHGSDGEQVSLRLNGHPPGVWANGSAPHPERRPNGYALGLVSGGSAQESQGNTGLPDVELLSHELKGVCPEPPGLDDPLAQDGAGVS
Chain of human A2b adenosine receptor (P29275 whole entry): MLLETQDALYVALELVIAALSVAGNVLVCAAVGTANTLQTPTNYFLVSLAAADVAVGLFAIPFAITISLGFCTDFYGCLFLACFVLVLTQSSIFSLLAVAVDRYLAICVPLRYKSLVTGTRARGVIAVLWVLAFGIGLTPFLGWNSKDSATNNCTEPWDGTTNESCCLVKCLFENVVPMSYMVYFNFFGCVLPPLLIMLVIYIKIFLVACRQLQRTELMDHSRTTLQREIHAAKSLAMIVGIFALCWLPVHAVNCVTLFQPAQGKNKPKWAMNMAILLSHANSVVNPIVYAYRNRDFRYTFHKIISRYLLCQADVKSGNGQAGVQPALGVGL

On to `COc1cccc2c1nc(N)n1nc([C@@H]3CCCN(c4nnc(C)o4)C3)nc21` [Example 82, (R)-7-methoxy-2-(1-(5-methyl-1,3,4-oxadiazol-2-yl)piperidin-3-yl)-[1,2,4]triazolo[1,5-c]quinazolin-5-amine], for which the 50% inhibitory concentration (IC50) in assay [1] is 0.0026 µM; in assay [2], 0.544 µM.
For the compound `COc1cccc2c1nc(N)n1nc([C@@H]3CCCN(c4ncn(C)n4)C3)nc21` [Example 83, (R)-7-methoxy-2-(1-(1-methyl-1H-1,2,4-triazol-3-yl)piperidin-3-yl)-[1,2,4]triazolo[1,5-c]quinazolin-5-amine], the IC50 in assay [1] is 0.0008 µM; in assay [2], 0.0783 µM.
On to `COc1cccc2c1nc(N)n1nc(C3CN(c4cnn(C5CC5)c4)CC(F)(F)C3)nc21` (single isomer, unassigned) [Example 154B], for which, in assay [1], the half-maximal inhibitory concentration (IC50) is 0.0174 µM. The “*A2B cAMP % inh. @ 10000 nM” value in assay [2] (@ 10000 nM, marked *) was 13% inh. @ 10000 nM*.
For `COc1cccc2c1nc(N)n1nc([C@@H]3CCCN(c4cnn(C5CCC5)c4)C3)nc21` [Example 18, (R)-2-(1-(1-cyclobutyl-1H-pyrazol-4-yl)piperidin-3-yl)-7-methoxy-[1,2,4]triazolo[1,5-c]quinazolin-5-amine], the concentration for half-maximal inhibition (IC50) stood at 0.001 µM in assay [1] and 0.0464 µM in assay [2].
The like results for `COc1cccc2c1nc(N)n1nc([C@@H]3CCN(c4cnn(CC(F)(F)F)c4)C3)nc21` [Example 164, (R)-7-methoxy-2-(1-(1-(2,2,2-trifluoroethyl)-1H-pyrazol-4-yl)pyrrolidin-3-yl)-[1,2,4]triazolo[1,5-c]quinazolin-5-amine] were, in that order, 0.0089 µM and 0.0295 µM.
The like results for `COc1cccc2c1nc(N)n1nc([C@@H]3CCCN(c4cncc(F)c4)C3)nc21` [Example 113, (R)-2-(1-(5-fluoropyridin-3-yl)piperidin-3-yl)-7-methoxy-[1,2,4]triazolo[1,5-c]quinazolin-5-amine] were, in that order, 0.0006 µM and 0.209 µM.
As to `COc1cccc2c1nc(N)n1nc(C3CCCN(c4cnn(C5CC5)c4)C3C)nc21` (stereo not drawn) [Example 129], in assay [1], the IC50 came to 5.28 µM. Further, in assay [2] (@ 10000 nM, marked *), the “*A2B cAMP % inh. @ 10000 nM” value was found to be 30% inh. @ 10000 nM*.
Take `COc1cccc2c1nc(N)n1nc([C@@H]3CCCN(c4ccc(C(F)(F)F)nc4)C3)nc21` [Example 112, (R)-7-methoxy-2-(1-(6-(trifluoromethyl)pyridin-3-yl)piperidin-3-yl)-[1,2,4]triazolo[1,5-c]quinazolin-5-amine]: the half-maximal inhibitory concentration (IC50) in assay [1] was found to be 0.0035 µM; in assay [2] it was 0.213 µM.
The like results for `COc1cccc2c1nc(N)n1nc(C3CN(c4cnn(CC(C)(C)O)c4)CC(F)(F)C3)nc21` (single isomer, unassigned) [Example 156B, (R or S)-1-(4-(5-(5-amino-7-methoxy-[1,2,4]triazolo[1,5-c]quinazolin-2-yl)-3,3-difluoropiperidin-1-yl)-1H-pyrazol-1-yl)-2-methylpropan-2-ol] were, in that order, 0.0022 µM and 1.39 µM.
The like results for `COc1ccc2c(c1)nc(N)n1nc([C@@H]3CC[C@H](C)N(c4cn(CC(C)(C)O)nc4C)C3)nc21` [Example 213, 1-(4-((2S,5R)-5-(5-amino-8-methoxy-[1,2,4]triazolo[1,5-c]quinazolin-2-yl)-2-methylpiperidin-1-yl)-3-methyl-1H-pyrazol-1-yl)-2-methylpropan-2-ol] were, in that order, 0.0004 µM and 0.0276 µM.
The like results for `COc1cccc2c1nc(N)n1nc([C@@H]3CC[C@H](C)N(c4cnn(C(C)C(C)(C)O)c4)C3)nc21` (stereo partly drawn) [Example 147D, 3-(4-((2S,5R)-5-(5-amino-7-methoxy-[1,2,4]triazolo[1,5-c]quinazolin-2-yl)-2-methylpiperidin-1-yl)-1H-pyrazol-1-yl)-2-methylbutan-2-ol] were, in that order, 0.0002 µM and 0.0056 µM.
The compound `COc1cccc2c1nc(N)n1nc([C@@H]3CCCN(c4cnccc4C(F)(F)F)C3)nc21` [Example 108, (R)-7-methoxy-2-(1-(4-(trifluoromethyl)pyridin-3-yl)piperidin-3-yl)-[1,2,4]triazolo[1,5-c]quinazolin-5-amine] displayed an IC50 in assay [1] of 0.0121 µM. The “*A2B cAMP % inh. @ 10000 nM” value in assay [2] (@ 10000 nM, marked *) stood at 18% inh. @ 10000 nM*.
With `COc1ccc2c(c1)nc(N)n1nc([C@H]3C[C@@H](C)CN(c4cnn(C(C)(C)CO)c4)C3)nc21` [Example 222C, 2-(4-((3S,5R)-3-(5-amino-8-methoxy-[1,2,4]triazolo[1,5-c]quinazolin-2-yl)-5-methylpiperidin-1-yl)-1H-pyrazol-1-yl)-2-methylpropan-1-ol], the values for the half-inhibitory concentration (IC50) in assay [1] and in assay [2] were 0.0004 µM and 0.0135 µM, respectively.
The like results for `COc1cccc2c1nc(N)n1nc([C@@H]3CCCN(c4cnn(CS(C)(=O)=O)c4)C3)nc21` [Example 123, (R)-7-methoxy-2-(1-(1-((methylsulfonyl)methyl)-1H-pyrazol-4-yl)piperidin-3-yl)-[1,2,4]triazolo[1,5-c]quinazolin-5-amine] were, in that order, 0.0008 µM and 0.0131 µM.
The like results for `COc1cccc2c1nc(N)n1nc([C@@H]3CCCN(c4cnn(CC5CC5)c4)C3)nc21` [Example 16, (R)-2-(1-(1-(cyclopropylmethyl)-1H-pyrazol-4-yl)piperidin-3-yl)-7-methoxy-[1,2,4]triazolo[1,5-c]quinazolin-5-amine] were, in that order, 0.0008 µM and 0.0928 µM.
Consider `Cn1cc(N2CCCC(c3nc4c5cccc(Cl)c5nc(N)n4n3)C2)cn1` (single isomer, unassigned) [Example 132A], for which the 50% inhibitory concentration (IC50) in assay [1] is 0.0186 µM. Also, the “*A2B cAMP ^ % @ 10000 nM” value in assay [2] (@ 10000 nM, marked *, printed with ^ and without inh.) is on record as 31% @ 10000 nM*.
As to `COc1cccc2c1nc(N)n1nc(C3CCC(C)N(c4cnn(CC(F)(F)F)c4)C3)nc21` (single isomer, unassigned) [Example 142B, 7-methoxy-2-((3R,6R or 3S,6S)-6-methyl-1-(1-(2,2,2-trifluoroethyl)-1H-pyrazol-4-yl)piperidin-3-yl)-[1,2,4]triazolo[1,5-c]quinazolin-5-amine], the values for the IC50 in assay [1] and in assay [2] were 0.0008 µM and 1.15 µM, respectively.
Turning to `CC[C@@H]1CC[C@@H](c2nc3c4cccc(OC)c4nc(N)n3n2)CN1c1cnn(CC(C)(C)O)c1` [Example 216A, 1-(4-((2R,5R)-5-(5-amino-7-methoxy-[1,2,4]triazolo[1,5-c]quinazolin-2-yl)-2-ethylpiperidin-1-yl)-1H-pyrazol-1-yl)-2-methylpropan-2-ol], the values for the IC50 in assay [1] and in assay [2] were 0.0339 µM and 0.651 µM, respectively.
The like results for `Nc1nc2c(OC(F)F)cccc2c2nc([C@@H]3CCCN(c4cnn(C5CC5)c4)C3)nn12` [Example 125, (R)-2-(1-(1-cyclopropyl-1H-pyrazol-4-yl)piperidin-3-yl)-7-(difluoromethoxy)-[1,2,4]triazolo[1,5-c]quinazolin-5-amine] were, in that order, 0.0077 µM and 1.28 µM.
As for `CC[C@@H]1CC[C@@H](c2nc3c4ccc(OC)cc4nc(N)n3n2)CN1c1cnn(C(C)(C)CO)c1` [Example 215B], the results for the IC50 in assay [1] and in assay [2] were 0.0005 µM and 0.0063 µM, respectively.
The like results for `COc1ccc2c(c1)nc(N)n1nc([C@@H]3CC[C@H](C)N(c4cnn(C(C)(C)CO)c4)C3)nc21` [Example 214, 2-(4-((2S,5R)-5-(5-amino-8-methoxy-[1,2,4]triazolo[1,5-c]quinazolin-2-yl)-2-methylpiperidin-1-yl)-1H-pyrazol-1-yl)-2-methylpropan-1-ol] were, in that order, 0.0002 µM and 0.0028 µM.
The like results for `COc1cccc2c1nc(N)n1nc([C@@H]3CCCN(c4cnn(C(F)F)c4)C3)nc21` [Example 3, (R)-2-(1-(1-(difluoromethyl)-1H-pyrazol-4-yl)piperidin-3-yl)-7-methoxy-[1,2,4]triazolo[1,5-c]quinazolin-5-amine] were, in that order, 0.0013 µM and 0.0426 µM.
The like results for `COc1cccc2c1nc(N)n1nc(C34CC(C3)N(c3cnn(C)c3)C4)nc21` [Example 127, 7-methoxy-2-(2-(1-methyl-1H-pyrazol-4-yl)-2-azabicyclo[2.1.1]hexan-4-yl)-[1,2,4]triazolo[1,5-e]quinazolin-5-amine] were, in that order, 0.0568 µM and 1.65 µM.
As to `CCC(O)(CC)Cn1cc(N2CCC[C@@H](c3nc4c5cccc(OC)c5nc(N)n4n3)C2)cn1` [Example 40], the half-maximal inhibitory concentration (IC50) in assay [1] was found to be 0.0031 µM; in assay [2] it was 0.0197 µM.
The like results for `COc1cccc2c1nc(N)n1nc([C@@H]3CCCN(c4cnn(CC(C)(C)OC)c4)C3)nc21` [Example 22, (R)-7-methoxy-2-(1-(1-(2-methoxy-2-methylpropyl)-1H-pyrazol-4-yl)piperidin-3-yl)-[1,2,4]triazolo[1,5-c]quinazolin-5-amine] were, in that order, 0.0016 µM and 0.102 µM.
The like results for `COc1cccc2c1nc(N)n1nc([C@@H]3CCCN(c4cnn([C@@H]5CCC[C@H](O)[C@@]5(C)O)c4)C3)nc21` [Example 27, (1S,2S,6R)-6-(4-((R)-3-(5-amino-7-methoxy-[1,2,4]triazolo[1,5-c]quinazolin-2-yl)piperidin-1-yl)-1H-pyrazol-1-yl)-1-methylcyclohexane-1,2-diol] were, in that order, 0.002 µM and 0.0403 µM.
Take `COc1ccc2c(c1)nc(N)n1nc([C@@H]3CCCN(c4cnn(C(C)(C)[C@@H](C)O)c4)C3)nc21` [Example 225B]: the IC50 was 0.0032 µM in assay [1] and 0.0784 µM in assay [2].

The record behind these values is US12263171B2, “7-, 8-, and 10-substituted amino triazolo quinazoline derivatives as adenosine receptor antagonists, pharmaceutical compositions and their use” (Merck Sharp & Dohme LLC, priority 2018, dated 2025).
